The record followed here is patent US12605399B2, “Compositions for CFTR MRNA therapy” (TRANSLATE BIO, INC., priority 2020, dated 2026).

In the test the test system is male CD1 mice. The test can be described thus: Luciferase production in the lung after intratracheal FFL mRNA-LNP. Format: in vivo, mouse. The conditions noted are these: for potency as determined by the average radiance detected in mouse lungs: FFL mRNA-LNP, intratracheal, about 5 hours post-dose; for performance in liposomes administered through pulmonary delivery via nebulization: mouse, in vivo. The method, then:
About 150 cationic lipids were tested. (FIG. 7). Each cationic lipid was used in preparing lipid nanoparticles encapsulating mRNA encoding firefly luciferase protein (FFL mRNA) according to methods known in the art. For example, suitable methods for mRNA encapsulation include methods described in International Publication Nos. WO2016/004318 and WO 2018/089801, which is hereby incorporated by reference in its entirety. The tested lipid nanoparticles comprised a lipid component consisting of a cationic lipid, a non-cationic lipid (DOPE), a PEG-modified lipid (DMG-PEG2K), and optionally cholesterol.
Lipid nanoparticle formulations comprising FFL mRNA were administered to male CD1 mice by a single intratracheal administration via nebulization using a Microsprayer®. At approximately 5 hours post-dose, the animals were dosed with luciferin by intraperitoneal injection and all animals were imaged using an IVIS imaging system to measure luciferase production in the lung. […] Some cationic lipids remarkably had greater than 50-fold increase in pulmonary protein expression as compared to other cationic lipids.

As to `CCCCCCCCOC(=O)CC(CC(=O)OCCCCCCCC)(OC(=O)CCN(C)C)C(=O)OCCCCCCCC` [TL1-01D-DMA, trioctyl 2-((3-(dimethylamino)propanoyl)oxy)propane-1,2,3-tricarboxylate], the “potency as determined by the average radiance detected in mouse lungs” value (from here on “potency as determined”) is recorded as “particularly high potency” and the “performance in liposomes administered through pulmonary delivery via nebulization” value (“performance” for short) is “performed particularly well”. The matching figures for `CCCCCCCCC(O)CN(CCCC(=O)OCCN1CC(C)N(CCOC(=O)CCCN(CC(O)CCCCCCCC)CC(O)CCCCCCCC)CC1C)CC(O)CCCCCCCC` (stereo not shown) [HEP-E3-E10]: “particularly high potency” and “performed particularly well”.

Take `CCCCCCCCC(O)CN(CCCCC(=O)OCCN1CC(C)N(CCOC(=O)CCCCN(CC(O)CCCCCCCC)CC(O)CCCCCCCC)CC1C)CC(O)CCCCCCCC` (stereo not shown) [HEP-E4-E10]: the “potency as determined” value is “particularly high potency” and the “performance” value was “performed particularly well”. The matching figures for `CCCCCCCCCCCCCCOC(=O)CC(CC(=O)OCCCCCCCCCCCCCC)(OC(=O)CCN(C)C)C(=O)OCCCCCCCCCCCCCC` [TL1-04D-DMA]: “particularly high potency” and “performed particularly well”. Regarding `CC(C)CCCC(C)C1CCC2C3CC=C4CC(OC(=O)CCc5cnc[nH]5)CCC4(C)C3CCC12C` (stereo not shown) [ICE, imidazole cholesterol ester, reference compound], the “historical radiance/expression of pulmonary-delivered FFL mRNA LNP” value (mice, nebulized FFL mRNA in LNP with this cationic lipid) is “around 10^4 p/s/cm^2sr”. For the molecule `CCCCC/C=C\C/C=C\CCCCCCCC(=O)OCC(COC(=O)CCCCCCC/C=C\C/C=C\CCCCC)(COC(=O)CCCCCCC/C=C\C/C=C\CCCCC)NCCS(=O)(=O)NCCCN(C)C` [GL-TES-SA-DMP-E18-2], the “potency as determined” value was “particularly high potency” and the “performance” value is “performed particularly well”.

On to `CCCCC/C=C\C/C=C\CCCCCCCC(=O)OCC(COC(=O)CCCCCCC/C=C\C/C=C\CCCCC)(COC(=O)CCCCCCC/C=C\C/C=C\CCCCC)NCCS(=O)(=O)NCCN(C)C` [GL-TES-SA-DME-E18-2, 2-((2-(N-(2-(dimethylamino)ethyl)sulfamoyl)ethyl)amino)-2-((((9Z,12Z)-octadeca-9,12-dienoyl)oxy)methyl)propane-1,3-diyl (9Z,9′Z,12Z,12′Z)-bis(octadeca-9,12-dienoate)], for which the “potency as determined” value is reported as “particularly high potency” and the “performance” value is reported as “performed particularly well”.
